# Experimental data reported in patent publication US11076593B2, “Reperfusion with omega-3 glycerides promotes donor organ protection for transplantation” (The Trustees of Columbia University in the City of New York, priority 2013, dated 2021).
# Experiments:
# [1] = tested on: isolated C57BL/6 mouse hearts; assay: Ex vivo I/R: release of injury markers (LDH, creatine kinase) into the perfusate
# Text: Evidence supporting the methods and products of the invention has been established in an ex vivo model using hearts rapidly removed from ketamine/xylazine anesthetized 12-14 weeks old C57BL/6 mice weighing between 25-30 g that were retrograde perfused in a non-recirculating mode, using an isovolumic perfusion system through the well-known Langendorf System (FIG. 1). In this system isolated mouse hearts were initially perfused with a perfusion buffer containing KREB's solution containing (in mM) the following: 118 NaCl, 4.7 KCl, 2.5 CaCl2, 1.2 MgCl2, 25 NaHCO3, 5 Glucose, 0.4 Palmitate, 0.4 BSA, and 70 mU/1 insulin. […]
# After the induced ischemia, control hearts were reperfused using the same Kreb's buffer. […] TG fatty acid (FA) composition (by weight) of the emulsion used in experiments 1-9 was determined by gas liquid chromatography and was as follows for the n-3 emulsion: C14:0, 5.4%; C16:0, 14.8%; C16:1, 8.4%; C18:0, 2.8%; C18:1, 12.7%; C18:2 (n-6), 2.6%; C18:3 (n-3), 0.8%; C20:1, 1.2%; C20:4 (n-6), 1.9%; C20:5 (EPA, n-3), 18.3%; C22:1, 0.2%; C22:4, 0.6%; C22:5, 2.6%; and C22:6 ([…], n-3), 27.7. […]
# Myocardial injury was assessed by measuring the release of lactate dehydrogenase (LDH) from the effluent in the ex vivo I/R system and from blood samples in the in vivo LAD system, using the commercially available enzymatic kits (Pointe Scientific, INC, MI USA) as published earlier.^1,2 […]
# [2] = tested on: p10 C57BL/6J neonatal mice, cerebral H/I; assay: Unilateral cerebral hypoxia-ischemia (H/I) in neonatal mice, TTC infarct volume at 24 hr; assay type: in vivo, mouse; conditions: pre-H/I protocol, two i.p. doses; 24 hr reperfusion
# Text: Three-day-old C57BL/6J neonatal mice of both genders were purchased from Jackson Laboratories (Bar Harbor, Me.) with their birth mother. The Rice-Vannucci model of H/I was used and modified to p10 neonatal mice.^5 Briefly, on postnatal day 10 H/I was induced by the ligation of the right common carotid artery, which was further cauterized and cut under isoflurane anesthesia. The investigator was blinded to the lipid emulsion treatment during the surgery and after the surgery. The entire surgical procedure was completed within 5 min for each mouse. Pups were then allowed to recover with their dams for 1.5 hr. Surrounding temperature during experiments was kept at 28° C. Mice were then exposed to systemic hypoxia for 15 min in a hypoxic chamber in a neonatal isolette (humidified 8% oxygen/nitrogen, Tech Air Inc., White Plains, N.Y.).^5 The ambient temperature inside the chamber during hypoxia was stabilized at 37±0.3° C. […]
# After 24 hr of reperfusion, the animals were sacrificed by decapitation and brains were immediately harvested. […] Using Adobe Photoshop and NIH Image J imaging applications, planar areas of infarction on serial sections were summed to obtain the volume (mm^3) of infarcted tissue, which was divided by the total (infarcted+non-infarcted) volume of the hemisphere ipsilateral to carotid artery ligation, and expressed as a percentage of total volume. […]
Compound,LDH release compared to I/R control hearts ([1]; SB-216763 (3 μM) plus 0.3% n-3 TG emulsion),"LDH release (fold change) compared to I/R control ([1]; inhibitor alone, from baseline through ischemia and reperfusion, 10 μM LY-294002, 3 μM SB216763)",infarct volume compared to saline control [2]
Cn1cc(C2=C(c3ccc(Cl)cc3Cl)C(=O)NC2=O)c2ccccc21 [SB216763],significantly inhibited LDH release,significantly inhibited LDH release,
Cc1c(C)c2c(c(C)c1O)CC[C@@](C)(CCC[C@H](C)CCC[C@H](C)CCCC(C)C)O2 [alpha-tocopherol],,,no significant difference
